From ChEMBL document CHEMBL4359916, “Design, synthesis and biological evaluation of 1-benzyl-5-oxopyrrolidine-2-carboximidamide derivatives as novel neuroprotective agents” (Eur J Med Chem, 2019)
Calls of active or inactive are those of the source. The rule behind the calls is not given here.

How the values were obtained:
SH-SY5Y [1] = experiment: Neuroprotective activity against NMDA-induced cell damage in human SH-SY5Y cells assessed as cell viability at 0.05 uM preincubated for 8 hrs followed by NMDA addition and further incubated for 30 mins and measured after 12 hrs by MTT assay relative to control; type: functional; settings: read-out: Activity
SH-SY5Y [2] = experiment: Neuroprotective activity against NMDA-induced cell damage in human SH-SY5Y cells assessed as cell viability at 0.5 uM preincubated for 8 hrs followed by NMDA addition and further incubated for 30 mins and measured after 12 hrs by MTT assay relative to control; type: functional; settings: read-out: Activity
SH-SY5Y [3] = experiment: Neuroprotective activity against NMDA-induced cell damage in human SH-SY5Y cells assessed as cell viability at 5 uM preincubated for 8 hrs followed by NMDA addition and further incubated for 30 mins and measured after 12 hrs by MTT assay relative to control; type: functional; settings: read-out: Activity
[4] = Half-life in human liver microsomes at 10 uM preincubated for 10 mins followed by addition of NADPH and measured for 5 to 60 mins; type: ADME, Microsome
[5] = Clearance in human liver microsomes at 10 uM preincubated for 10 mins followed by addition of NADPH and measured for 5 to 60 mins; type: ADME, Microsome
[6] = Metabolic stability in human liver microsomes assessed as parent compound remaining at 10 uM measured after 60 mins; type: ADME, Microsome; settings: read-out: Stability
[7] = target: T1, Glutamate [NMDA] receptor (Homo sapiens) (UniProt Q05586+Q12879+Q13224+O15399+O60391+Q14957+Q8TCU5); experiment: Antagonist activity at NMDA receptor in human SH-SY5Y cells assessed as reduction in NMDA-stimulated calcium ion influx at 5 uM measured after 3 hrs by Fluo-3 AM indicator based laser scanning confocal microscopy analysis; type: cell-based
SH-SY5Y [8] = experiment: Neuroprotective activity in human SH-SY5Y cells assessed as reduction in NMDA-induced NR2B upregulation preincubated for 6 hrs followed by NMDA addition and further incubated for 30 mind and measured after 4 hrs by Western blot analysis; type: functional, cell-based
[9] = target: T1, Glutamate [NMDA] receptor (Homo sapiens); experiment: Inhibition of NMDA receptor in NMDA-induced human SH-SY5Y cells assessed as increase in phosphorylated ERK1/2 level preincubated for 6 hrs followed by NMDA addition and further incubated for 30 mind and measured after 4 hrs by Western blot analysis; type: cell-based
Mus musculus [10] = experiment: Cognitive enhancing effect in C57BL/6 mouse model of bilateral common carotid artery occlusion-induced brain ischemia assessed as effect on total arm entries at 10 to 50 mg/kg/day, po via gavage at 24 hrs post surgery on day 8 after […] of drug administration by Y-maze test; type: functional, organism-based
Mus musculus [11] = experiment: Memory enhancement effect in C57BL/6 mouse model of bilateral common carotid artery occlusion-induced brain ischemia assessed as increase in preferential index at 50 mg/kg/day, po via gavage after 24 hrs post surgery measured on day 9 to 12 after 1 hr by novel object recognition test; type: functional, organism-based
Mus musculus [12] = experiment: Memory enhancement effect in C57BL/6 mouse model of bilateral common carotid artery occlusion-induced brain ischemia assessed as increase in discrimination index at 50 mg/kg/day, po via gavage 24 hrs post surgery measured on day 9 to 12 after 24 hrs by novel object recognition test; type: functional, organism-based
Mus musculus [13] = experiment: Improvement in spatial memory impairment in C57BL/6 mouse model of bilateral common carotid artery occlusion-induced brain ischemia at 50 mg/kg/day, po via gavage at 24 hrs post surgery measured on day 9 to 12 by novel object recognition test; type: functional, organism-based
Mus musculus [14] = experiment: Improvement in visual recognition effect in C57BL/6 mouse model of bilateral common carotid artery occlusion-induced brain ischemia at 50 mg/kg/day, po via gavage at 24 hrs post surgery measured on day 9 to 12 by novel object recognition test; type: functional, organism-based
Mus musculus [15] = experiment: Improvement in spatial memory impairment in C57BL/6 mouse model of bilateral common carotid artery occlusion-induced brain ischemia assessed as decrease in escape latency at 10 to 50 mg/kg/day, po via gavage at 24 hrs post surgery and 1 hr prior to the test measured on day 14 to 17 by Morris water maze test; type: functional, organism-based
Mus musculus [16] = experiment: Improvement in spatial memory impairment in C57BL/6 mouse model of bilateral common carotid artery occlusion-induced brain ischemia assessed as increase in time spent in correct quadrant at 10 to 50 mg/kg/day, po via gavage at 24 hrs post surgery and 1 hr prior to the test measured on day 14 to 17 by Morris water maze test; type: functional, organism-based
Mus musculus [17] = experiment: Improvement in spatial memory impairment in C57BL/6 mouse model of bilateral common carotid artery occlusion-induced brain ischemia assessed as increase in swimming distance at 10 to 50 mg/kg/day, po via gavage at 24 hrs post surgery and 1 hr prior to the test measured on day 14 to 17 by Morris water maze test; type: functional, organism-based
Mus musculus [18] = experiment: Improvement in spatial memory impairment in C57BL/6 mouse model of bilateral common carotid artery occlusion-induced brain ischemia assessed as increase in number of virtual platform crossing at 10 to 50 mg/kg/day, po via gavage at 24 hrs post surgery and 1 hr prior to the test measured on day 14 to 17 by Morris water maze test; type: functional, organism-based
Mus musculus [19] = experiment: Cognitive enhancing effect in C57BL/6 mouse model of bilateral common carotid artery occlusion-induced brain ischemia assessed as increase in spontaneous alternation behavior at 10 to 50 mg/kg/day, po via gavage at 24 hrs post surgery on day 8 after 1 hr drug administration by Y-maze test; type: functional, organism-based
Mus musculus [20] = experiment: Cognitive enhancing effect in C57BL/6 mouse model of bilateral common carotid artery occlusion-induced brain ischemia at 50 mg/kg/day, po via gavage at 24 hrs post surgery after day 17; type: functional, organism-based
Mus musculus [21] = experiment: Improvement in spatial memory impairment in C57BL/6 mouse model of bilateral common carotid artery occlusion-induced brain ischemia at 50 mg/kg/day, po via gavage at 24 hrs post surgery after day 17; type: functional, organism-based

SMILES | viability at 0.05 µM (SH-SY5Y [1]) [%] | viability at 0.5 µM (SH-SY5Y [2]) [%] | viability at 5 µM (SH-SY5Y [3]) [%] | also measured
N=C(NCc1ccc(O)cc1)[C@@H]1CCC(=O)N1Cc1ccccc1 | 19.8 | 35.4 | 37.6 | –
COc1ccc(CN2C(=O)CC[C@H]2C(=N)NCc2ccc(O)cc2)cc1 | 16 | 20.5 | 26.6 | –
COc1ccc(CNC(=N)[C@@H]2CCC(=O)N2Cc2ccc(C)cc2)cc1 | 19.5 | 21.9 | 29.5 | –
N=C(NCc1ccccc1)[C@@H]1CCC(=O)N1Cc1ccc([N+](=O)[O-])cc1 | 13.7 | 24 | 25.6 | –
N=C(NCc1ccccc1)[C@@H]1CCC(=O)N1Cc1ccccc1[N+](=O)[O-] | 10.1 | 28.8 | 25.3 | –
Cl.N=C(NCc1ccc(O)cc1)[C@@H]1CCC(=O)N1Cc1ccc(F)cc1 | 35.2 | 42 | 48.6 | half-life at 10 µM [4]: > 2.42 h; CLint [5]: < 9.6 µL/min/mg; remaining at 1 h, 10 µM [6]: 92.7%; inhibition [7]: Active; Activity (SH-SY5Y [8]): Active; inhibition [9]: Active; Activity (Mus musculus [10]): inactive; Activity (Mus musculus [11]): Active; Activity (Mus musculus [12]): Active; Activity (Mus musculus [13]): Active; Activity (Mus musculus [14]): Active; Activity (Mus musculus [15]): Active; Activity (Mus musculus [16]): Active; Activity (Mus musculus [17]): Active; Activity (Mus musculus [18]): Active; Activity (Mus musculus [19]): Active; Activity (Mus musculus [20]): Active; Activity (Mus musculus [21]): Active
COc1ccc(CNC(=N)[C@@H]2CCC(=O)N2Cc2ccc(OC)cc2)cc1 | 24.2 | 24.8 | 33.6 | –
N=C(NCc1ccccc1)[C@@H]1CCC(=O)N1Cc1ccccc1 | 16.6 | 27.9 | 20.7 | –
Cc1ccc(CN2C(=O)CC[C@H]2C(=N)NCc2ccccc2)cc1 | 17.1 | 23.5 | 24.8 | –
Cc1ccc(CN2C(=O)CC[C@H]2C(=N)NCc2ccc(O)cc2)cc1 | 20.5 | 21.9 | 23.8 | –
N=C(NCc1ccc(O)cc1)[C@@H]1CCC(=O)N1Cc1ccccc1[N+](=O)[O-] | 20 | 26.9 | 30.4 | –
COc1ccc(CN2C(=O)CC[C@H]2C(=N)NCc2ccccc2)cc1 | 12.3 | 21 | 17.9 | –
C[C@@H]([C@@H](O)c1ccc(O)cc1)N1CCC(Cc2ccccc2)CC1 [(S)-IFENPRODIL] | 29.4 | 40.4 | 41 | inhibition [7]: Active
COc1ccc(CNC(=N)[C@@H]2CCC(=O)N2Cc2ccccc2)cc1 | 7.1 | 23.6 | 19.5 | –
COc1ccc(CNC(=N)[C@@H]2CCC(=O)N2Cc2ccccc2[N+](=O)[O-])cc1 | 18.1 | 21.1 | 25.4 | –
COc1ccc(CNC(=N)[C@@H]2CCC(=O)N2Cc2ccc([N+](=O)[O-])cc2)cc1 | 14.3 | 25.4 | 35.2 | –
N=C(NCc1ccccc1)[C@@H]1CCC(=O)N1Cc1ccc(F)cc1 | 13.3 | 23.3 | 31.4 | –
COc1ccc(CNC(=N)[C@@H]2CCC(=O)N2Cc2ccc(F)cc2)cc1 | 15.8 | 36.7 | 38.1 | –
N=C(NCc1ccc(O)cc1)[C@@H]1CCC(=O)N1Cc1ccc([N+](=O)[O-])cc1 | 25.9 | 31.3 | 34.5 | –
